Laboratory results reported in US20130096119A1, “Isoquinolin-3-Ylurea Derivatives” (priority 2010, published 2013).
Values after ≈ are worked out from the molar mass of the structure shown.

System: S. pneumoniae ATCC 49619
Test: Minimal inhibitory concentration (MIC) by microdilution method (CLSI M7-A7)
Type: cell-based, Streptococcus pneumoniae
Conditions: Streptococcus pneumoniae, ATCC49619, cation-adjusted Mueller-Hinton Broth supplemented with 3% (v/v) lysed horse blood
Outline: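 Broth microdilution per CLSI M7-A7 in cation-adjusted Mueller-Hinton broth, supplemented with 3% (v/v) lysed horse blood for S. pneumoniae; MIC reported in mg/l.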

Structure (SMILES) | MIC [µg/mL]
CCNC(=O)Nc1cc2cc(NCc3ccc(-n4cnc(C)n4)cc3)cc(C)c2cn1.Cl [Example 131, 1-ethyl-3-{8-methyl-6-[4-(3-methyl-[1,2,4]triazol-1-yl)-benzylamino]-isoquinolin-3-yl}-urea hydrochloride] | 4
CCNC(=O)Nc1cc2c(-c3cscn3)ccc(C)c2cn1.Cl [Example 285, 1-ethyl-3-(8-methyl-5-thiazol-4-yl-isoquinolin-3-yl)-urea hydrochloride] | 2
CCNC(=O)Nc1cc2c(-c3ccccc3)cccc2cn1 [Example 43, 1-ethyl-3-(5-phenyl-isoquinolin-3-yl)-urea] | 8 (≈ 27.5 µM)
CCNC(=O)Nc1cc2cc(-c3cncc(F)c3)cc(C)c2cn1 [Example 102, 1-ethyl-3-[6-(5-fluoro-pyridin-3-yl)-8-methyl-isoquinolin-3-yl]-urea] | 2 (≈ 6.17 µM)
CCNC(=O)Nc1cc2cccc(COc3ccncc3C(=O)OC)c2cn1.Cl [Example 212, 4-[3-(3-ethyl-ureido)-isoquinolin-8-ylmethoxy]-nicotinic acid methyl ester hydrochloride] | 8
CCNC(=O)Nc1cc2cc(-c3ccc4ccccc4c3)cc(C)c2cn1 [Example 79, 1-ethyl-3-(8-methyl-6-naphthalen-2-yl-isoquinolin-3-yl)-urea] | 1 (≈ 2.81 µM)
CCNC(=O)Nc1cc2c(-c3ccncc3)ccc(Oc3cccnc3)c2cn1 [Example 222, 1-ethyl-3-[5-pyridin-4-yl-8-(pyridin-3-yloxy)-isoquinolin-3-yl]-urea] | 1 (≈ 2.59 µM)
CCNC(=O)Nc1cc2c(-c3ccnc(OC)c3)ccc(C)c2cn1 [Example 42, 1-ethyl-3-[5-(2-methoxy-pyridin-4-yl)-8-methyl-isoquinolin-3-yl]-urea] | 2 (≈ 5.95 µM)
CCNC(=O)Nc1cc2cccc(Nc3ccc(C(N)=O)cc3)c2cn1.Cl [Example 252, 4-[3-(3-ethyl-ureido)-isoquinolin-8-ylamino]-benzamide hydrochloride] | 2
CCNC(=O)Nc1cc2c(-c3ccncn3)ccc(C)c2cn1 [Example 278, 1-ethyl-3-(8-methyl-5-pyrimidin-4-yl-isoquinolin-3-yl)-urea] | 2 (≈ 6.51 µM)
CCNC(=O)Nc1cc2cccc(Nc3ccc(CC(=O)NCc4ccccc4)cc3)c2cn1.Cl [Example 208, N-benzyl-2-{4-[3-(3-ethyl-ureido)-isoquinolin-8-ylamino]-phenyl}-acetamide hydrochloride] | 8
CCNC(=O)Nc1cc2cccc(Nc3ccc(OC)c(C(=O)NC)c3)c2cn1 [Example 243, 5-[3-(3-ethyl-ureido)-isoquinolin-8-ylamino]-2-methoxy-N-methyl-benzamide] | 1 (≈ 2.54 µM)

Further lines, results first:

MIC [µg/mL] | Structure (SMILES)
0.5 (≈ 1.03 µM) | CCNC(=O)Nc1cc2c(F)c(-c3cnc4ccccc4c3)cc(-c3cnc4ccccc4c3)c2cn1 [Example 112, 1-ethyl-3-(5-fluoro-6,8-di-quinolin-3-yl-isoquinolin-3-yl)-urea]
0.5 (≈ 1.5 µM) | CCNC(=O)Nc1cc2cc(-c3cccc(CN)c3)cc(C)c2cn1 [Example 26, 1-[6-(3-(aminomethyl)-phenyl)-8-methyl-isoquinolin-3-yl]-3-ethyl-urea]
1 (≈ 2.85 µM) | CCNC(=O)Nc1cc2cccc(Nc3cccc(C(=O)O)c3)c2cn1 [Example 198, 3-[3-(3-ethyl-ureido)-isoquinolin-8-ylamino]-benzoic acid]
0.5 | CCNC(=O)Nc1cc2c(-c3cn[nH]c3)ccc(C)c2cn1.Cl [Example 281, 1-ethyl-3-[8-methyl-5-(1H-pyrazol-4-yl)-isoquinolin-3-yl]urea hydrochloride]
0.5 (≈ 1.3 µM) | CCNC(=O)Nc1cc2c(-c3cccnc3)ccc(Oc3cccnc3)c2cn1 [Example 223, 1-ethyl-3-[5-pyridin-3-yl-8-(pyridin-3-yloxy)-isoquinolin-3-yl]-urea]
0.25 (≈ 0.652 µM) | CCNC(=O)Nc1cc2cc(-c3ccc(S(C)(=O)=O)cc3)cc(C)c2cn1 [Example 94, 1-ethyl-3-[6-(4-methanesulfonyl-phenyl)-8-methyl-isoquinolin-3-yl]-urea]
